From publication PMC5218480 (PLoS ONE, 2017)

Test system: MV-4-11 cells
Experiment: Gene expression microarray analysis (Affymetrix PrimeView) and GSEA
Assay type: cell-based, human
Set-up: RFU PODN (11730768_x_at) / Fold change /veh PODN (11730768_x_at) / RFU LINC00158 (11744669_a_at) / Fold change /veh LINC00158 (11744669_a_at) / RFU DUSP10 (11751237_a_at) / Fold change /veh DUSP10 (11751237_a_at) / RFU ID3 (11757404_x_at) / Fold change /veh ID3 (11757404_x_at) / RFU PLEKHG5 (11737974_s_at) / Fold change /veh PLEKHG5 (11737974_s_at) / RFU LRRC4B (11730491_at) / Fold change /veh LRRC4B (11730491_at) / RFU GIMAP4 (11747438_a_at) / Fold change /veh GIMAP4 (11747438_a_at) / RFU KRT8 (11758183_x_at) / Fold change /veh KRT8 (11758183_x_at) / RFU CNN1 (11734310_a_at) / Fold change /veh CNN1 (11734310_a_at) / RFU VPS37D (11726825_at) / Fold change /veh VPS37D (11726825_at) / RFU C10orf10 (11716522_x_at) / Fold change /veh C10orf10 (11716522_x_at) / RFU KIR2DL2 /// KIR2DL4 /// KIR2DL5A /// KIR2DL5B /// KIR2DS1 /// KIR2DS2 /// KIR2DS3 /// KIR2DS4 /// KIR3DL3 /// KIR3DL3 /// KIR3DS1 (11738374_at) / Fold change /veh KIR2DL2 /// KIR2DL4 /// KIR2DL5A /// KIR2DL5B /// KIR2DS1 /// KIR2DS2 /// KIR2DS3 /// KIR2DS4 /// KIR3DL3 /// KIR3DL3 /// KIR3DS1 (11738374_at) / RFU C1QL1 (11718748_at) / Fold change /veh C1QL1 (11718748_at) / RFU TMPRSS4 (11747572_a_at) / Fold change /veh TMPRSS4 (11747572_a_at) / RFU HAMP (11756126_x_at) / Fold change /veh HAMP (11756126_x_at) / RFU RNFT2 (11725882_a_at) / Fold change /veh RNFT2 (11725882_a_at) / RFU NR4A2 (11747474_a_at) / Fold change /veh NR4A2 (11747474_a_at) / RFU ABCC12 (11746883_a_at) / Fold change /veh ABCC12 (11746883_a_at) / RFU TMEM136 (11760407_x_at) / Fold change /veh TMEM136 (11760407_x_at) / RFU CLDN22 /// WWC2 (11732394_at) / Fold change /veh CLDN22 /// WWC2 (11732394_at) / RFU HLA-DPB1 (11760878_x_at) / Fold change /veh HLA-DPB1 (11760878_x_at) / RFU SPINT1 (11716480_a_at) / Fold change /veh SPINT1 (11716480_a_at) / RFU GAP43 (11754022_s_at) / Fold change /veh GAP43 (11754022_s_at) / RFU A4GNT (11735810_at) / Fold change /veh A4GNT (11735810_at) / RFU PRB3 (11715151_x_at) / Fold change /veh PRB3 (11715151_x_at) / RFU TUBB4B (11761932_at) / Fold change /veh TUBB4B (11761932_at) / RFU CAPN14 (11732068_a_at) / Fold change /veh CAPN14 (11732068_a_at) / RFU TMCC2 (11721928_a_at) / Fold change /veh TMCC2 (11721928_a_at) / RFU IRGQ (11745062_a_at) / Fold change /veh IRGQ (11745062_a_at) / RFU FAM174B (11720279_a_at) / Fold change /veh FAM174B (11720279_a_at) / RFU TMPRSS4 (11748680_a_at) / Fold change /veh TMPRSS4 (11748680_a_at) / RFU FAM212B (11763350_a_at) / Fold change /veh FAM212B (11763350_a_at) / RFU PLEKHG5 (11743358_a_at) / Fold change /veh PLEKHG5 (11743358_a_at) / RFU ZSCAN30 (11745921_a_at) / Fold change /veh ZSCAN30 (11745921_a_at) / RFU CMKLR1 (11741424_a_at) / Fold change /veh CMKLR1 (11741424_a_at) / RFU LOC101060620 /// MAPK8IP1 (11723275_at) / Fold change /veh LOC101060620 /// MAPK8IP1 (11723275_at) / RFU SPTSSB (11747773_x_at) / Fold change /veh SPTSSB (11747773_x_at) / RFU PRSS12 (11739890_at) / Fold change /veh PRSS12 (11739890_at) / RFU BIN1 (11741810_x_at) / Fold change /veh BIN1 (11741810_x_at) / RFU WNT11 (11732464_a_at) / Fold change /veh WNT11 (11732464_a_at) / RFU C10orf10 (11716521_a_at) / Fold change /veh C10orf10 (11716521_a_at) / RFU C5orf56 (11738089_at) / Fold change /veh C5orf56 (11738089_at) / RFU CYB561 (11721691_x_at) / Fold change /veh CYB561 (11721691_x_at) / RFU ANKRD19P (11752326_a_at) / Fold change /veh ANKRD19P (11752326_a_at) / RFU OR2T12 /// OR2T33 /// OR2T8 (11738714_s_at) / Fold change /veh OR2T12 /// OR2T33 /// OR2T8 (11738714_s_at) / RFU VCAN (11748164_a_at) / Fold change /veh VCAN (11748164_a_at) / RFU JSRP1 (11732532_at) / Fold change /veh JSRP1 (11732532_at) / RFU KRTAP10-11 (11738290_x_at) / Fold change /veh KRTAP10-11 (11738290_x_at) / RFU MYO3A (11730013_a_at) / Fold change /veh MYO3A (11730013_a_at) / RFU EBF3 (11725865_a_at) / Fold change /veh EBF3 (11725865_a_at) / RFU CAMK2N1 (11719241_x_at) / Fold change /veh CAMK2N1 (11719241_x_at) / RFU C5orf56 (11738088_a_at) / Fold change /veh C5orf56 (11738088_a_at) / RFU OLFML3 (11715873_a_at) / Fold change /veh OLFML3 (11715873_a_at) / RFU LOC100653217 /// NTM (11731650_a_at) / Fold change /veh LOC100653217 /// NTM (11731650_a_at) / RFU MAPK11 (11762145_a_at) / Fold change /veh MAPK11 (11762145_a_at) / RFU FIZ1 (11724087_x_at) / Fold change /veh FIZ1 (11724087_x_at) / RFU OASL (11726364_x_at) / Fold change /veh OASL (11726364_x_at) / RFU SOX15 (11748057_x_at) / Fold change /veh SOX15 (11748057_x_at) / RFU CD79A (11719716_a_at) / Fold change /veh CD79A (11719716_a_at) / RFU HIST1H1D (11736915_at) / Fold change /veh HIST1H1D (11736915_at) / RFU CASKIN2 (11723855_a_at) / Fold change /veh CASKIN2 (11723855_a_at) / RFU LOC730098 (11760151_x_at) / Fold change /veh LOC730098 (11760151_x_at) / RFU OR4N2 (11742367_at) / Fold change /veh OR4N2 (11742367_at) / RFU PRRT2 (11749266_a_at) / Fold change /veh PRRT2 (11749266_a_at) / RFU SNX32 (11753110_a_at) / Fold change /veh SNX32 (11753110_a_at) / RFU CDHR5 (11726645_a_at) / Fold change /veh CDHR5 (11726645_a_at) / RFU RCAN1 (11760418_a_at) / Fold change /veh RCAN1 (11760418_a_at) / RFU FAM167A (11723789_a_at) / Fold change /veh FAM167A (11723789_a_at) / RFU FAM26E (11764081_at) / Fold change /veh FAM26E (11764081_at) / RFU ISYNA1 (11749810_s_at) / Fold change /veh ISYNA1 (11749810_s_at) / RFU ACY1 (11761880_at) / Fold change /veh ACY1 (11761880_at) / RFU 11764098_at / Fold change /veh 11764098_at / RFU SAMD14 (11745864_x_at) / Fold change /veh SAMD14 (11745864_x_at) / RFU NPB (11741838_a_at) / Fold change /veh NPB (11741838_a_at) / RFU TMPRSS6 (11731388_a_at) / Fold change /veh TMPRSS6 (11731388_a_at) / RFU KRTAP10-2 (11738614_at) / Fold change /veh KRTAP10-2 (11738614_at) / RFU ARHGAP8 /// PRR5-ARHGAP8 (11727945_x_at) / Fold change /veh ARHGAP8 /// PRR5-ARHGAP8 (11727945_x_at) / RFU KRTAP5-7 /// NADSYN1 (11734609_at) / Fold change /veh KRTAP5-7 /// NADSYN1 (11734609_at) / RFU RASL12 (11751679_a_at) / Fold change /veh RASL12 (11751679_a_at) / RFU CDKN2B (11736163_a_at) / Fold change /veh CDKN2B (11736163_a_at) / RFU PRF1 (11729649_at) / Fold change /veh PRF1 (11729649_at) / RFU, ZNF638 /// ZNF638-IT1 / Fold change vs veh, ZNF638 /// ZNF638-IT1 / RFU, PANK3 / Fold change vs veh, PANK3 / RFU, SH3YL1 / Fold change vs veh, SH3YL1 / RFU, ZEB2 / Fold change vs veh, ZEB2 / RFU, NRIP1 / Fold change vs veh, NRIP1 / RFU, PTTG1IP / Fold change vs veh, PTTG1IP / RFU, CAPN2 / Fold change vs veh, CAPN2 / RFU, MED14 / Fold change vs veh, MED14 / RFU, SNORA58 / Fold change vs veh, SNORA58 / RFU, C1orf63 / Fold change vs veh, C1orf63 / RFU, LRRFIP1 / Fold change vs veh, LRRFIP1 / RFU, NDUFAF7 / Fold change vs veh, NDUFAF7 / RFU, SLC12A2 / Fold change vs veh, SLC12A2 / RFU, IBTK / Fold change vs veh, IBTK / RFU, ESF1 / Fold change vs veh, ESF1 / Fold change vs veh, TMEM50B / RFU, TAOK1 / Fold change vs veh, TAOK1 / RFU, ACBD3 / Fold change vs veh, ACBD3 / RFU, TMA16 / Fold change vs veh, TMA16 / RFU, RWDD3 / Fold change vs veh, RWDD3 / RFU, BCAT1 / Fold change vs veh, BCAT1 / RFU, EDEM3 / Fold change vs veh, EDEM3 / RFU, TMEM33 / Fold change vs veh, TMEM33 / RFU, WDR75 / Fold change vs veh, WDR75 / RFU, AHCTF1 / Fold change vs veh, AHCTF1 / RFU, TFRC / Fold change vs veh, TFRC / RFU, ZDHHC17 / Fold change vs veh, ZDHHC17 / RFU, NOM1 / Fold change vs veh, NOM1 / RFU, ARL8B / Fold change vs veh, ARL8B / RFU, ZBTB11 / Fold change vs veh, ZBTB11 / RFU, TAMM41 / Fold change vs veh, TAMM41 / RFU, KIAA1704 /// LOC100996395 / Fold change vs veh, KIAA1704 /// LOC100996395 / RFU, ING1 / Fold change vs veh, ING1 / RFU, TRMT61B / Fold change vs veh, TRMT61B / RFU, FUBP3 / Fold change vs veh, FUBP3 / RFU, TP53 / Fold change vs veh, TP53 / RFU, TNKS2 / Fold change vs veh, TNKS2 / RFU, ZFP14 / Fold change vs veh, ZFP14 / RFU, ACTR2 / Fold change vs veh, ACTR2 / RFU, PPP3R1 / Fold change vs veh, PPP3R1 / RFU, PIK3R1 / Fold change vs veh, PIK3R1 / RFU, HNRNPA1 / Fold change vs veh, HNRNPA1 / RFU, RNF170 / Fold change vs veh, RNF170 / RFU, ZNF28 / Fold change vs veh, ZNF28 / RFU, RNGTT / Fold change vs veh, RNGTT / RFU, OGT / Fold change vs veh, OGT / RFU, BRD1 / Fold change vs veh, BRD1 / RFU, MARS / Fold change vs veh, MARS / RFU, ZNF655 / Fold change vs veh, ZNF655 / RFU, FAHD1 / Fold change vs veh, FAHD1 / RFU, BDP1 / Fold change vs veh, BDP1 / RFU, LRRCC1 / Fold change vs veh, LRRCC1 / RFU, ARID1A / Fold change vs veh, ARID1A / RFU, ZNF146 / Fold change vs veh, ZNF146 / RFU, ZNF330 / Fold change vs veh, ZNF330 / RFU, GPN3 / Fold change vs veh, GPN3 / RFU, C9orf123 / Fold change vs veh, C9orf123 / RFU, N4BP2L2 / Fold change vs veh, N4BP2L2 / RFU, ARFIP1 / Fold change vs veh, ARFIP1 / RFU, FAM179B / Fold change vs veh, FAM179B / RFU, BCL10 / Fold change vs veh, BCL10 / RFU, UHRF1BP1L / Fold change vs veh, UHRF1BP1L / RFU, BET1 / Fold change vs veh, BET1 / RFU, CNOT2 / Fold change vs veh, CNOT2 / RFU, ZNF268 / Fold change vs veh, ZNF268 / Fold change vs veh, ZNF507 / RFU, DGCR2 / Fold change vs veh, DGCR2 / RFU, WDSUB1 / Fold change vs veh, WDSUB1 / Fold change vs veh, HSP90B1 /// MIR3652 / RFU, ADSS / Fold change vs veh, ADSS / RFU, GK / Fold change vs veh, GK / RFU, ZNF148 / Fold change vs veh, ZNF148 / RFU, TAF9 / Fold change vs veh, TAF9 / RFU, SLC1A5 / Fold change vs veh, SLC1A5 / RFU, SLMO2 / Fold change vs veh, SLMO2 / RFU, ABCC4 / Fold change vs veh, ABCC4 / RFU, LOC101060439 /// RAP1B / Fold change vs veh, LOC101060439 /// RAP1B / RFU, RFX7 / Fold change vs veh, RFX7 / RFU, GTPBP10 / Fold change vs veh, GTPBP10 / RFU, CNEP1R1 / Fold change vs veh, CNEP1R1 / RFU, BIVM-ERCC5 /// ERCC5 / Fold change vs veh, BIVM-ERCC5 /// ERCC5 / RFU, ILF3 / Fold change vs veh, ILF3 / RFU 11762660_at / Fold change /veh 11762660_at / RFU VCAN (11757783_s_at) / Fold change /veh VCAN (11757783_s_at) / RFU DDX43 (11728927_at) / Fold change /veh DDX43 (11728927_at) / RFU KRT8 (11758188_x_at) / Fold change /veh KRT8 (11758188_x_at) / RFU NKD1 (11759106_at) / Fold change /veh NKD1 (11759106_at) / RFU SRD5A1 (11742802_a_at) / Fold change /veh SRD5A1 (11742802_a_at) / RFU TPSAB1 /// TPSB2 (11721975_s_at) / Fold change /veh TPSAB1 /// TPSB2 (11721975_s_at) / RFU GSTM3 (11746129_a_at) / Fold change /veh GSTM3 (11746129_a_at) / RFU IL23R (11737362_x_at) / Fold change /veh IL23R (11737362_x_at) / RFU TMEM51 (11727254_a_at) / Fold change /veh TMEM51 (11727254_a_at) / RFU PIWIL2 (11732686_x_at) / Fold change /veh PIWIL2 (11732686_x_at) / RFU ORM1 (11744905_x_at) / Fold change /veh ORM1 (11744905_x_at) / RFU CCDC152 (11743942_at) / Fold change /veh CCDC152 (11743942_at) / RFU ECM1 (11717891_a_at) / Fold change /veh ECM1 (11717891_a_at) / RFU IL23R (11748794_a_at) / Fold change /veh IL23R (11748794_a_at) / RFU TNFAIP8L3 (11732012_x_at) / Fold change /veh TNFAIP8L3 (11732012_x_at) / RFU MBOAT4 (11741988_at) / Fold change /veh MBOAT4 (11741988_at) / RFU 11764193_at / Fold change /veh 11764193_at / RFU TMEM53 (11763286_at) / Fold change /veh TMEM53 (11763286_at) / RFU MAGEB2 (11727129_at) / Fold change /veh MAGEB2 (11727129_at) / RFU TMEM200A (11744735_a_at) / Fold change /veh TMEM200A (11744735_a_at) / RFU CCDC152 (11751479_a_at) / Fold change /veh CCDC152 (11751479_a_at) / RFU FAM211A (11726209_a_at) / Fold change /veh FAM211A (11726209_a_at) / RFU RGS16 (11746705_a_at) / Fold change /veh RGS16 (11746705_a_at) / RFU VCAN (11755009_s_at) / Fold change /veh VCAN (11755009_s_at) / RFU RHOB (11743442_s_at) / Fold change /veh RHOB (11743442_s_at) / RFU RGS16 (11720943_a_at) / Fold change /veh RGS16 (11720943_a_at) / RFU RGS16 (11720944_at) / Fold change /veh RGS16 (11720944_at) / RFU, VPS4B / Fold change vs veh, VPS4B / RFU, CREB1 / Fold change vs veh, CREB1 / RFU, DNAJC13 / Fold change vs veh, DNAJC13 / RFU, GNAQ / Fold change vs veh, GNAQ / RFU, CDK5R1 / Fold change vs veh, CDK5R1 / RFU, ZRANB3 / Fold change vs veh, ZRANB3 / RFU, CUL4A / Fold change vs veh, CUL4A / RFU, CCNY / Fold change vs veh, CCNY / RFU, UFL1 / Fold change vs veh, UFL1 / RFU, COG3 / Fold change vs veh, COG3 / RFU, DIAPH2 / Fold change vs veh, DIAPH2 / RFU, SKA2 / Fold change vs veh, SKA2 / RFU, AFF3 / Fold change vs veh, AFF3 / RFU, LMF1 / Fold change vs veh, LMF1 / RFU, IPO11 / Fold change vs veh, IPO11 / RFU, DFFB / Fold change vs veh, DFFB / RFU, FOXP1 / Fold change vs veh, FOXP1 / RFU, CARD8 / Fold change vs veh, CARD8 / RFU, STRN3 / Fold change vs veh, STRN3 / RFU, ADK / Fold change vs veh, ADK / RFU, RASSF2 / Fold change vs veh, RASSF2 / RFU, WIPF1 / Fold change vs veh, WIPF1 / RFU, LARP1B / Fold change vs veh, LARP1B / RFU, RASA1 / Fold change vs veh, RASA1 / RFU, RB1 / Fold change vs veh, RB1 / RFU, PPFIA1 / Fold change vs veh, PPFIA1 / RFU, MAT2A / Fold change vs veh, MAT2A / RFU, CCT5 / Fold change vs veh, CCT5 / RFU, WDR92 / Fold change vs veh, WDR92 / RFU, CUX1 / Fold change vs veh, CUX1 / RFU, TTC7A / Fold change vs veh, TTC7A / RFU, TMEM135 / Fold change vs veh, TMEM135 / RFU, DEPTOR / Fold change vs veh, DEPTOR / RFU, CPM / Fold change vs veh, CPM / RFU, DNAJB6 / Fold change vs veh, DNAJB6 / RFU, CACNA2D3 / Fold change vs veh, CACNA2D3 / RFU, DTX4 / Fold change vs veh, DTX4 / RFU, TFCP2 / Fold change vs veh, TFCP2 / RFU, GMCL1 /// GMCL1P1 / Fold change vs veh, GMCL1 /// GMCL1P1 / RFU, AEBP2 / Fold change vs veh, AEBP2 / RFU, SNHG1 /// SNORD22 /// SNORD25 /// SNORD26 /// SNORD27 /// SNORD28 /// SNORD29 /// SNORD31 / Fold change vs veh, SNHG1 /// SNORD22 /// SNORD25 /// SNORD26 /// SNORD27 /// SNORD28 /// SNORD29 /// SNORD31 / Fold change (Aza/veh), C12orf56 (ProbeSet 11735607_a_at) / Fold change (ACY-1035/veh), C12orf56 (ProbeSet 11735607_a_at) / Fold change (Aza/veh), FGFR1OP (ProbeSet 11751329_s_at) / Fold change (ACY-1035/veh), FGFR1OP (ProbeSet 11751329_s_at) / Fold change (Aza/veh), VPS36 (ProbeSet 11739960_a_at) / Fold change (ACY-1035/veh), VPS36 (ProbeSet 11739960_a_at) / RFU SYPL1 (11715823_x_at) / Fold change /veh SYPL1 (11715823_x_at) / RFU IGFBP7 (11715501_s_at) / Fold change /veh IGFBP7 (11715501_s_at) / RFU REEP3 (11722064_at) / Fold change /veh REEP3 (11722064_at) / RFU IGLL1 (11728026_x_at) / Fold change /veh IGLL1 (11728026_x_at): dose or concentration left out as unconfirmed
Settings: ProbeSet 11759095_at; LIST D

Nc1ccc(-c2cccs2)cc1NC(=O)c1ccc2c(c1)cc(C1CC1)n2CCN1CCOCC1 [ACY-1035]
RFU, GNAQ: 901.39 RFU
